Laboratory results: patent US20050228180A1, “Alpha, omega-dicarboximide derivatives as useful uro-selective a1a adrenoceptor blockers” (priority 2002, published 2005)
Structures can show the parent of a compound that is named as a salt.

Legend:
[1] = molecular target: T1, α1A adrenoceptor (Rattus norvegicus, UniProt P43140); experiment: Radioligand binding, [3H] prazosin displacement, rat submaxillary membranes; conditions: for Ki: [3H] prazosin displacement, rat submaxillary membranes, read-out: Affinity (Ki) α1A (Rat Submaxillary); for α1B/α1A: ratio of binding affinities, rat liver / rat submaxillary
T1 construct: from tissue; host or cells: rat submaxillary gland membranes
T1 sequence (P43140 1-466): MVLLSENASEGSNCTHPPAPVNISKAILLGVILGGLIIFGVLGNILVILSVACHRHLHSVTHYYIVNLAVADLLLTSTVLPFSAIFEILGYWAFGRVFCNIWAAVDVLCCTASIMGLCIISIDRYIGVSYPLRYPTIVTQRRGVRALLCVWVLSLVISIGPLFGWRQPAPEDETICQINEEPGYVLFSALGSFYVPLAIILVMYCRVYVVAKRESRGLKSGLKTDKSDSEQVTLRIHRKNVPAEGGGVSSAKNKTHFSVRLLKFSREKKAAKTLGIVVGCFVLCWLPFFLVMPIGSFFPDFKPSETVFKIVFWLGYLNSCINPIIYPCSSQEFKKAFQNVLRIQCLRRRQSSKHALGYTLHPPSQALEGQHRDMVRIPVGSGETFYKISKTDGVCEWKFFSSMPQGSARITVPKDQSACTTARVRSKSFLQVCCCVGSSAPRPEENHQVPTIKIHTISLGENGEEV
Description: (§1) Receptor binding assays were performed using native a-adrenoceptors. The affinity of different compounds for α1A and α1B adrenoceptor subtypes was evaluated by studying their ability to displace specific [^3H] prazosin binding from the membranes of rat submaxillary and liver respectively (Michel et al., Br J Pharmacol, 1989: 98:883). The binding assays were performed according to U+Prichard et al. (Eur J Pharmacol, 1978; 50:87 with minor modifications.
(§2) Submaxillary glands were isolated immediately after sacrifice. The liver was perfused with buffer (Tris HCl 50 mM, NaCl 100 mM, 10 mM EDTA pH 7.4). The tissues were homogenised in 10 volumes of buffer (Tris HCl 50 mM, NaCl 100 mM, 10 mM EDTA pH 7.4). The homogenate was filtered through two layers of wet gauge and filtrate was centrifuged at 500 g for 10 min. The supernatant was subsequently centrifuged at 40,000 g for 45 min. The pellet thus obtained was resuspended in the same volume of assay buffer (Tris HCl 50 mM, 5 mM EDTA pH 7.4) and was stored at −70° C. until the time of assay.
(§3) The membrane homogenates (150-250 μg protein) were incubated in 250 μl of assay buffer (Tris HCl 50 mM, EDTA 5 mM, pH 7.4) at 24-25° C. for 1 hour. Non specific binding was determined in the presence of 300 nM prazosin. The incubation was terminated by vacuum filtration over GF/B fibre filters. The filters were then washed with ice cold 50 mM Tris HCl buffer (pH 7.4). The filtermats were dried and bound radioactivity retained on filters was counted. The IC50 and Kd were estimated by using the non-linear curve-fitting program using G Pad Prism software. The value of inhibition constant Ki was calculated from competitive binding studies by using Cheng & Prusoff equation (Cheng & Prusoff, Biochem Pharmacol, 1973, 22: 3099-3108), Ki=IC50/(1+L/Kd) where L is the concentration of [^3H] prazosin used in the particular experiment (Table 1).

[2] = molecular target: T2, α1D adrenoceptor (aorta) (Rattus norvegicus, UniProt P23944); experiment: In vitro functional assay, isolated aorta, norepinephrine contraction; format: cell-based; conditions: read-out: α Adrenoceptor Subtype (pKB) α1D (converted)
T2 construct: Isolated tissues were mounted in organ bath containing Krebs Henseleit buffer; from tissue; host or cells: isolated rat aorta
T2 sequence (P23944 1-561): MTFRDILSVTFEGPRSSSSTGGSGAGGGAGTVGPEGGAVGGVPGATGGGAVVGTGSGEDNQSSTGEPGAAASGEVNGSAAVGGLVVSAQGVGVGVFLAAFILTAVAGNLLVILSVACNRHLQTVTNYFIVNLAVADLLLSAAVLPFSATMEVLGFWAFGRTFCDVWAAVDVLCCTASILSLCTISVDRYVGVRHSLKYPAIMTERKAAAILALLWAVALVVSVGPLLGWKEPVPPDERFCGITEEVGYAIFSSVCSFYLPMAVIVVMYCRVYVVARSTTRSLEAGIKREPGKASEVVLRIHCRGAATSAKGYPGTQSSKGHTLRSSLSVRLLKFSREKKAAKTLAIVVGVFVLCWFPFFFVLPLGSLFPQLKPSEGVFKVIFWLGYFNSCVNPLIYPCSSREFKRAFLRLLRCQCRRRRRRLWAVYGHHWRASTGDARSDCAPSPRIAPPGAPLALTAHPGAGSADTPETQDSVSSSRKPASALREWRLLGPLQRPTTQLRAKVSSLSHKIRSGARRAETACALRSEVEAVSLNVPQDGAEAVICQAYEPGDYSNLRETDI
From the text: (§4) In order to study selectivity of action of these compounds towards different a-adrenoceptor subtypes, the ability of these compounds to antagonise (α1D) prostate (α1A) and spleen (α1B) was studied. Aorta and spleen tissues were isolated from urethane anaesthetized (1.5 g/kg) male wister rats. Isolated tissues were mounted in organ bath containing Krebs Henseleit buffer of the following composition (mM): NaCl 118; KCl 4.7; CaCl2 2.5; MgSO4 7H2O 1.2; NaHCO3 25; KH2PO4 1.2; glucose 11.5. Buffer was maintained at 37° C. and aereated with a mixture of 95% O2 and 5% CO2. A resting tension of 2 g (aorta) or 1 g (spleen and prostate) was applied to tissues. Contractile response was monitored using a force displacement transducer and recorded on chart recorders. Tissues were allowed to equilibrate for 2 hours. At the end of equilibration period, concentration response curves to norepinephrine (aorta) and phenylepinephrine (spleen and prostate) were obtained in the absence and presence of tested compound (at concentration of […]). Antagonist affinity was calculated and expressed as pKB values in Table II.

[3] = molecular target: T3, α1A adrenoceptor (prostate) (Rattus norvegicus, UniProt P43140); experiment: In vitro functional assay, isolated prostate, phenylepinephrine contraction; format: cell-based; conditions: for Selectivity α1D/α1A: functional, from pKB; for Kb: rat prostate, phenylepinephrine, read-out: α Adrenoceptor Subtype (pKB) α1A (converted)
T3 construct: from tissue; host or cells: isolated prostate tissue
T3 sequence (P43140 1-466): T1 sequence (P43140 1-466)
From the text: as §4

[4] = molecular target: T4, α1B adrenoceptor (Rattus norvegicus, UniProt P15823); experiment: Radioligand binding, [3H] prazosin displacement, rat liver membranes; conditions: read-out: Affinity (Ki) α1B (Rat Liver)
T4 construct: from tissue; host or cells: rat liver membranes
T4 sequence (P15823 1-515): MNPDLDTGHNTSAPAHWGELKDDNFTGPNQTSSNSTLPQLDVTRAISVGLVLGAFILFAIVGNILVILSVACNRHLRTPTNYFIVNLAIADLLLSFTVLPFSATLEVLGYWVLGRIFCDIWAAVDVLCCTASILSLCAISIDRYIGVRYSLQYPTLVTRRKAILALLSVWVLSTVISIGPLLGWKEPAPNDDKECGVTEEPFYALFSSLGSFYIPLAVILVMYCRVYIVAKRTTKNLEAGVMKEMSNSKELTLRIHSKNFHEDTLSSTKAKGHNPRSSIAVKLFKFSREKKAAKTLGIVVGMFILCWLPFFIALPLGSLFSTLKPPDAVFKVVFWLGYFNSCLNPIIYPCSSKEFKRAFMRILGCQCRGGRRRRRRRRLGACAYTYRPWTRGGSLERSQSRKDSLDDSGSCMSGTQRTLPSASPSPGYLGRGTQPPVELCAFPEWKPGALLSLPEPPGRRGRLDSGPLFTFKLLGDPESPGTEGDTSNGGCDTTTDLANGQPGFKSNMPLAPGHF
Description: as §1, §2, §3

Row | Structure (SMILES) | Ki [1] | α1B/α1A [1] | Kb [2] | Selectivity α1D/α1A [3] | Kb [3] | Ki [4]
1 | CCOc1ccccc1N1CCN(CCCN2C(=O)C3CCC(O)CC3C2=O)CC1.Cl (stereo not drawn) [Compound No. 18, 2-[3-{4-(2-Ethoxyphenyl)piperazin-1-yl}propyl]-5-hydroxy-3a,4,5,6,7,7a-hexahydro-1H-isoindole-1,3(2H)-dione hydrochloride] | 1.5 nM | 65 | 0.575 nM | 1.3 | 0.427 nM | 97 nM
2 | CC(C)Oc1cc(N)ccc1N1CCN(CCCN2C(=O)C3CC=CCC3C2=O)CC1.Cl (stereo not drawn) [Compound No. 26, 2-[3-{4-(2-Isopropoxy-4-aminophenyl)piperazin-1-yl}propyl]-3a,4,7,7a-tetrahydro-1H-isoindole-1,3(2H)-dione hydrochloride] | 8.83 nM | 237 | 166 nM | 105 | 1.58 nM | 2090 nM
3 | CC(C)Oc1ccccc1N1CCN(CC(O)CN2C(=O)CCCC2=O)CC1.Cl (stereo not drawn) [Compound No. 29, 1-[4-(2-Isopropoxyphenyl)piperazin-1-yl]-2-hydroxy-3-(2,6-dioxopiperidin-1-yl)propane hydrochloride] | 2.8 nM | 85 | 10.2 nM | 45 | 0.229 nM | 238 nM
4 | CC(C)Oc1ccccc1N1CCN(CC(O)CN2C(=O)C3CC4OC4CC3C2=O)CC1 (stereo not drawn) [Compound No. 30, 2-[3-{4-(2-Isopropoxyphenyl)piperazin-1-yl}-2-hydroxypropyl]-5,6-epoxy-3a,4,5,6,7,7a-hexahydro-1H-isoindole-1,3(2H)-dione] | 1.7 nM | 231 | 8.71 nM | 5.2 | 1.66 nM | 393 nM
5 | O=C1C2CC=CCC2C(=O)N1CC(O)CN1CCN(c2ccccc2OCC(F)(F)F)CC1 (stereo not drawn) [Compound No. 31, 2-[3-{4-(2-(2,2,2-Trifluoroethoxyphenyl)piperazin-1-yl}-2-hydroxypropyl]-3a,4,7,7a-tetrahydro-1H-isoindole-1,3(2H)-dione hydrochloride] | 2.3 nM | 40 | 4.79 nM | 3.3 | 1.45 nM | 91 nM
6 | O=C1C2CC3OC3CC2C(=O)N1CCCN1CCN(c2ccccc2OCC(F)(F)F)CC1 (stereo not drawn) [Compound No. 32, 2-[3-{4-(2-(2,2,2-Trifluoroethoxy)phenyl)piperazin-1-yl}propyl]-5,6-epoxy-3a,4,5,6,7,7a-hexahydro-1H-isoindole-1,3(2H)-dione] | 0.18 nM | 283 | 15.8 nM | 23 | 0.676 nM | 51 nM
7 | O=C1C2CC3OC3CC2C(=O)N1CC(O)CN1CCN(c2ccccc2OCC(F)(F)F)CC1 (stereo not drawn) [Compound No. 34, 2-[3-{4-(2-(2,2,2-Trifluoroethoxy)phenyl)piperazin-1-yl}-2-hydroxypropyl]-5,6-epoxy-3a,4,5,7,7a-hexahydro-1H-isoindole-1,3(2H)-dione] | 1.95 nM | 159 | 19.1 nM | 15 | 1.26 nM | 311 nM
8 | CC(=O)OC1C=CCC2C(=O)N(CCCN3CCN(c4ccccc4OC(C)C)CC3)C(=O)C12 (stereo not drawn) [Compound No. 40, 2-[3-{4-(2-Isopropoxyphenyl)piperazin-1-yllpropyl]4-acetoxy-3a,4,7,7a-tetrahydro-1H-isoindole-1,3(2H)-dione hydrochloride] | 0.82 nM | 174 | 1.51 nM | 4.5 | 0.339 nM | 143 nM
9 | COC1=C(OC)CC2C(=O)N(CCCN3CCN(c4ccccc4OC(C)C)CC3)C(=O)C2C1 (stereo not drawn) [Compound No. 75, 2-[3-{4-(2-Isopropoxyphenyl)piperazin-1-yl}propyl]-5,6-dimethoxy-3a,4,7,7a-tetrahydro-1H-isoindole-1,3 (21H)-dione hydrochloride] | 2.3 nM | 31 | – | – | – | 71 nM
10 | COC1CC2C(=O)N(CCCN3CCN(c4ccccc4OC(C)C)CC3)C(=O)C2CC1OC.Cl (stereo not drawn) [Compound No. 76, 2-[3-{4-(2-Isopropoxyphenyl)piperazin-1-yl}propyl]-5,6-dimethoxy-3a,4,5,6,7,7a-hexahydro-1H-isoindole-1,3(2H)-dione hydrochloride] | 1.4 nM | 137 | – | – | – | 192 nM
11 | CC(C)Oc1ccccc1N1CCN(CCCN2C(=O)C3C(c4ccccc4)C=CC(c4ccccc4)C3C2=O)CC1 (stereo not drawn) [Compound No. 77, 2-[3-{4-(2-Isopropoxyphenyl)piperazin-1-yllpropyl]-4,7-diphenyl-3a,4,7,7a-tetrahydro-1H-isoindole-1,3(2H)-dione hydrochloride] | 485 nM | 1.9 | – | – | – | 916 nM
12 | COc1ccccc1N1CCN(CCCN2C(=O)C3C(c4ccccc4)C=CC(c4ccccc4)C3C2=O)CC1.Cl (stereo not drawn) [Compound No. 78, 2-[3-{4-(2-Methoxyphenyl)piperazin-1-yl}propyl]-4,7-diphenyl-3a,4,7,7a-tetrahydro-1H-isoindole-1,3(2H)-dione hydrochloride] | 322 nM | 1 | – | – | – | 334 nM
